Data from BigSolDB 2.1.

O=C([O-])/C=C/C(=O)O.[Na+]
solubility (mole fraction)
Conditions	283.15 K	293.15 K	303.15 K	313.15 K	323.15 K
in 1,4-dioxane	–	0.000152	0.000165	0.000185	0.000234
in acetone	–	2.81e-05	3.78e-05	4.83e-05	6.67e-05
in acetonitrile	4.79e-05	5.26e-05	5.58e-05	6.32e-05	7.05e-05
in ethanol	5.51e-05	6.4e-05	7.35e-05	8.74e-05	9.51e-05
in ethyl acetate	9.88e-05	0.000121	0.000167	0.000219	0.000284
in isobutanol	9.6e-06	1.26e-05	1.62e-05	2.36e-05	3.17e-05
in isopropanol	2.3e-05	3.02e-05	4.08e-05	5.16e-05	6.76e-05
in methanol	0.000417	0.000454	0.000495	0.000532	0.000572
in n-butanol	2.25e-05	4.63e-05	5.97e-05	7.6e-05	9.43e-05
in n-pentanol	3.44e-05	4.21e-05	4.93e-05	5.45e-05	6.5e-05
in n-propanol	4.82e-05	6.3e-05	7.13e-05	8.71e-05	0.000102
in water	0.00712	0.00908	0.0114	0.0138	0.0172
